Laboratory results published in ChEMBL document CHEMBL3991601, “The target landscape of clinical kinase drugs” (Science, 2017).
Activity calls are given as the source filed them.

How the values were obtained:
LIM domain kinase 1 = LIM domain kinase 1 (Homo sapiens, UniProt P53667)
[1] = target: Casein kinase I isoform alpha (Homo sapiens, UniProt P48729)
[2] = target: Ribosomal protein S6 kinase alpha-4 (Homo sapiens, UniProt O75676)
[3] = target: Protein-tyrosine kinase 6 (Homo sapiens, UniProt Q13882)
Sequence of Protein-tyrosine kinase 6 (Q13882 whole entry): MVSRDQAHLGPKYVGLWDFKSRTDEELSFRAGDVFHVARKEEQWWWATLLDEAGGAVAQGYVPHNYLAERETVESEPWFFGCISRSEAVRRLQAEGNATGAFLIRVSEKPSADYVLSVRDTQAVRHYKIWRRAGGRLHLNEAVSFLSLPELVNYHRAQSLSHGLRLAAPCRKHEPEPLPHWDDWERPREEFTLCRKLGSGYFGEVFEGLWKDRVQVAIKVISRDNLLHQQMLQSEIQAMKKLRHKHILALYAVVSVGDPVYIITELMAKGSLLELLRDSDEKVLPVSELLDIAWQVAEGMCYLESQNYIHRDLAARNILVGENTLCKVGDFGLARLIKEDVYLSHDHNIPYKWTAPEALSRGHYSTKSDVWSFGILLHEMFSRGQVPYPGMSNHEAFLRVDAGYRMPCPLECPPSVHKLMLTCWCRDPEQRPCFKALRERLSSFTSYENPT

[4] = target: T1, Ribosyldihydronicotinamide dehydrogenase [quinone] (Homo sapiens, UniProt P16083)
T1 sequence (P16083 whole entry): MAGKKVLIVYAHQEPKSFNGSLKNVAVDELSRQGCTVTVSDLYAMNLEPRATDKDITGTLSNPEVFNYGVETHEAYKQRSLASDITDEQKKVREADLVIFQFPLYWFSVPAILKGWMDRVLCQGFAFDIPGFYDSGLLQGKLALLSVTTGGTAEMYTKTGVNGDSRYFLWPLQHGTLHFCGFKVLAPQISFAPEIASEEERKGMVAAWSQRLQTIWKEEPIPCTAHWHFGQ

[5] = target: T2, Cytochrome c1, heme protein, mitochondrial (Homo sapiens, UniProt P08574)
T2 sequence (P08574 whole entry): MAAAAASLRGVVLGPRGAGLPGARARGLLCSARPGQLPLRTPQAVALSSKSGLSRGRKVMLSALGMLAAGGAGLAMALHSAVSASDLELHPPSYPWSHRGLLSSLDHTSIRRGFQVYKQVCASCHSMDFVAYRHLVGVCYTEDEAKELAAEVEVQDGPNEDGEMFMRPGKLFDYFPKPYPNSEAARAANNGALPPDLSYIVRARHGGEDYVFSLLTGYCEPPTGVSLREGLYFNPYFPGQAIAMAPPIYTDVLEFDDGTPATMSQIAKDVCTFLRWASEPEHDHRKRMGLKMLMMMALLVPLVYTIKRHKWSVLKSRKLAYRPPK

[6] = target: Casein kinase I isoform gamma-1 (Homo sapiens, UniProt Q9HCP0)
Myosin-14 = Myosin-14 (Homo sapiens, UniProt Q7Z406)
Adenosine kinase = Adenosine kinase (Homo sapiens, UniProt P55263)
Sequence of Adenosine kinase (P55263 whole entry): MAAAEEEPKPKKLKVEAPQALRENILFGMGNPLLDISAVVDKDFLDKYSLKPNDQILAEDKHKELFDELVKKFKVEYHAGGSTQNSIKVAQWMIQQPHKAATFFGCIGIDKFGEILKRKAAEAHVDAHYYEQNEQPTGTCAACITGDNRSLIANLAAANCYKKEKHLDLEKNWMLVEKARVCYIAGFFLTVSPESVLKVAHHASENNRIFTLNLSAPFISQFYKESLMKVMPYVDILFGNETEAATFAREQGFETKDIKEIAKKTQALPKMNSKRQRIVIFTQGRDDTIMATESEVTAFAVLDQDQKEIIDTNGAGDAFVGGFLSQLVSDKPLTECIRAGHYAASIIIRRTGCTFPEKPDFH

[7] = target: T3, Probable ATP-dependent RNA helicase DDX6 (Homo sapiens, UniProt P26196)
T3 sequence (P26196 whole entry): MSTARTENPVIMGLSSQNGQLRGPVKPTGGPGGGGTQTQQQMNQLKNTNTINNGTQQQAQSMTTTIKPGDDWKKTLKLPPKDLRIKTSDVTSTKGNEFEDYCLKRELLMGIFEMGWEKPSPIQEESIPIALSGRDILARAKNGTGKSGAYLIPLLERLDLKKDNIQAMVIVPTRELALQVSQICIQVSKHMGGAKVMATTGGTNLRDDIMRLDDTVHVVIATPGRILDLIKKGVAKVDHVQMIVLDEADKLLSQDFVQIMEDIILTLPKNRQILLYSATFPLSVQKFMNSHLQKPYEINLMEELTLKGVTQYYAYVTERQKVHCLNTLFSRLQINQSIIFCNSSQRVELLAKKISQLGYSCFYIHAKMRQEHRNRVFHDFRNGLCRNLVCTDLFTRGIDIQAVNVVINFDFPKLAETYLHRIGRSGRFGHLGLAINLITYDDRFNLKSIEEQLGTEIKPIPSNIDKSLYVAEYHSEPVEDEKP

[8] = target: Cyclin-dependent kinase 2 (Homo sapiens, UniProt P24941)
[9] = target: Serine/threonine-protein kinase MRCK gamma (Homo sapiens, UniProt Q6DT37)
Sequence of Serine/threonine-protein kinase MRCK gamma (Q6DT37 whole entry): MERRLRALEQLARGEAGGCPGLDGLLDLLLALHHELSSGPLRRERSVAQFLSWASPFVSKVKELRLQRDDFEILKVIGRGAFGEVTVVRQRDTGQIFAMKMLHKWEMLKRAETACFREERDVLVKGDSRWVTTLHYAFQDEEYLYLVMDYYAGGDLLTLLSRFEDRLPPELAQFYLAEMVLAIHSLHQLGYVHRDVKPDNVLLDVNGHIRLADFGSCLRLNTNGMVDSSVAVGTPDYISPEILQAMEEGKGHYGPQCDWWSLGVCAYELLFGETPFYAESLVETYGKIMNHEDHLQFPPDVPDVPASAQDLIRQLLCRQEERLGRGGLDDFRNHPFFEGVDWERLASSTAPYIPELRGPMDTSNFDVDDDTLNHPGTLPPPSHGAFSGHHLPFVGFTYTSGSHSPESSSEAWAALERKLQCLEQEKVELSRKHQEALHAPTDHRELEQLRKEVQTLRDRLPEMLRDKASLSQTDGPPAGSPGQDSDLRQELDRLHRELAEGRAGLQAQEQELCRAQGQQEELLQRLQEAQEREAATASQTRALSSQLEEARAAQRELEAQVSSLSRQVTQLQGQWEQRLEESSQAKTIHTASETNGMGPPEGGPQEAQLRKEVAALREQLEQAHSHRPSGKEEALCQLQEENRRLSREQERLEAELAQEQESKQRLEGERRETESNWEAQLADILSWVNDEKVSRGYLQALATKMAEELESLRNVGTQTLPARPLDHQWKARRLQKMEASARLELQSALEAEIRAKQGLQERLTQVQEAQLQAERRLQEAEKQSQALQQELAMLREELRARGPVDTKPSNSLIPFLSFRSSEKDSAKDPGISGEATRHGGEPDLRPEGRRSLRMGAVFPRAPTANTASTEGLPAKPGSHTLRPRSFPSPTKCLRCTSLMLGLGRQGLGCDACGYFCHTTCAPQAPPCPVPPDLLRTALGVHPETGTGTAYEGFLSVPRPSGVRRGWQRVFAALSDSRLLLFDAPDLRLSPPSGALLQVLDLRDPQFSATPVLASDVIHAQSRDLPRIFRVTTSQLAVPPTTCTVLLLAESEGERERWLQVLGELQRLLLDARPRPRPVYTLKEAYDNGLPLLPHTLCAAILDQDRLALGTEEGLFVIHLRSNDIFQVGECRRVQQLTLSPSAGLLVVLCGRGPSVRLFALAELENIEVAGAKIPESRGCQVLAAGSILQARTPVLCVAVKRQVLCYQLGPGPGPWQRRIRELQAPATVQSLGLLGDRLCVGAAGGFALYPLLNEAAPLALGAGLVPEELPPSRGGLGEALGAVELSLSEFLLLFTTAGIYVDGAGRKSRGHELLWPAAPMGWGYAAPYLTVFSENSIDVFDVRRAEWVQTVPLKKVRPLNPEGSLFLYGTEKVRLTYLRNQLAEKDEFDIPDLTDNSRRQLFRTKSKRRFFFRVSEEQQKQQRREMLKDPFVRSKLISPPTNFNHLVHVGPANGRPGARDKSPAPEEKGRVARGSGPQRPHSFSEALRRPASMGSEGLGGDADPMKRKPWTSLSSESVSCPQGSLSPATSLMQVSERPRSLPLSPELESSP

dCTP pyrophosphatase 1 = target: T4, dCTP pyrophosphatase 1 (Homo sapiens, UniProt Q9H773)
T4 sequence (Q9H773 whole entry): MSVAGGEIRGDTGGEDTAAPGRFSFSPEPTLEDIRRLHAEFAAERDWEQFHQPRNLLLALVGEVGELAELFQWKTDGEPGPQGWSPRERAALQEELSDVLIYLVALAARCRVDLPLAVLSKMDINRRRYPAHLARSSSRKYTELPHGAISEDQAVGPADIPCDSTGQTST

[10] = target: Casein kinase I isoform epsilon (Homo sapiens, UniProt P49674)
[11] = target: T5, Long-chain-fatty-acid--CoA ligase 5 (Homo sapiens, UniProt Q9ULC5)
T5 sequence (Q9ULC5 whole entry): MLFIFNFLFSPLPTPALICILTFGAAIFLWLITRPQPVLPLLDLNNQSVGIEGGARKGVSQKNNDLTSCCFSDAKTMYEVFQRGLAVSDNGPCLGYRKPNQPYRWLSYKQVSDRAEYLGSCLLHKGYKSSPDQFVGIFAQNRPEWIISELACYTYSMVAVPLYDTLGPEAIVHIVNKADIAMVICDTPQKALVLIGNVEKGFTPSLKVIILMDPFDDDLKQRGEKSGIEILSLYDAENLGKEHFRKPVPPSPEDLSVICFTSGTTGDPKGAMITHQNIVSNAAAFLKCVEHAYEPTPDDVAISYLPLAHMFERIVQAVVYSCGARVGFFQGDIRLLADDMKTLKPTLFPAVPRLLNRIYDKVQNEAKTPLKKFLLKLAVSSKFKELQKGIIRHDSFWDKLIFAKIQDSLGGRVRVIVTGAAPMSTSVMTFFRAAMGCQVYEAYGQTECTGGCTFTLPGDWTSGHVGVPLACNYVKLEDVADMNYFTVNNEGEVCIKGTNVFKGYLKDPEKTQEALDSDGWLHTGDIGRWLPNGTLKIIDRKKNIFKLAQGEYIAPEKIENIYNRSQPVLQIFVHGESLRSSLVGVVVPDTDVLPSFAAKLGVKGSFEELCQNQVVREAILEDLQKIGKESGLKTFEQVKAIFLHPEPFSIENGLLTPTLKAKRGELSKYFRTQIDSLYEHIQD

Rab-like protein 3 = target: T6, Rab-like protein 3 (Homo sapiens, UniProt Q5HYI8)
T6 sequence (Q5HYI8 whole entry): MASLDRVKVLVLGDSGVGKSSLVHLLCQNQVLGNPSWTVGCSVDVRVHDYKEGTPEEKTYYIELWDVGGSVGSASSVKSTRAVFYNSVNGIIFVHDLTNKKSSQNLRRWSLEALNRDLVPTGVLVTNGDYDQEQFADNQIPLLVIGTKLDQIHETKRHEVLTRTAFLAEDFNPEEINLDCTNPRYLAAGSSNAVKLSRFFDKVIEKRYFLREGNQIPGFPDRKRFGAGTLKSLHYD

[12] = target: Cyclin-dependent kinase 6 (Homo sapiens, UniProt Q00534)
Sequence of Cyclin-dependent kinase 6 (Q00534 whole entry): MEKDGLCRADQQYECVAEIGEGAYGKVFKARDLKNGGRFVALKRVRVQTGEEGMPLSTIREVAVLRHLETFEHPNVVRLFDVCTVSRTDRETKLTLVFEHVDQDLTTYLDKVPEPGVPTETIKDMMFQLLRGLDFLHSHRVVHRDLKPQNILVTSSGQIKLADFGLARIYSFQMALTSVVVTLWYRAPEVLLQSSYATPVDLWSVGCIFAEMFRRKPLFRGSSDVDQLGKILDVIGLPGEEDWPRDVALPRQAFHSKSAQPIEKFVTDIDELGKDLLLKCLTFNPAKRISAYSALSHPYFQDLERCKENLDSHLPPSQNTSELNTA

[13] = target: Putative heat shock protein HSP 90-beta 2 (Homo sapiens, UniProt Q58FF8)
Sequence of Putative heat shock protein HSP 90-beta 2 (Q58FF8 whole entry): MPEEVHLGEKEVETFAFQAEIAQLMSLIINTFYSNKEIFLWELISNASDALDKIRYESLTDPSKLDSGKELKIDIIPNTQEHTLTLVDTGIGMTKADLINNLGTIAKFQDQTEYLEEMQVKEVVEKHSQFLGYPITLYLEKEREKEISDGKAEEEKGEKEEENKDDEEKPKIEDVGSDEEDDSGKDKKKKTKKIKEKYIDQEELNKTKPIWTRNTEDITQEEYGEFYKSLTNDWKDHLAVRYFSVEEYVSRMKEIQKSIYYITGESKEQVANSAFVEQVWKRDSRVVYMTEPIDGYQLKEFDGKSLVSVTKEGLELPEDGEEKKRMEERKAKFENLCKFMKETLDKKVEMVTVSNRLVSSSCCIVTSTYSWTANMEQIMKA
Further: in the data inactive means no Kd found up to 30 µM.

Sequence of LIM domain kinase 1 (P53667 whole entry, the tested form may be a part, canonical isoform): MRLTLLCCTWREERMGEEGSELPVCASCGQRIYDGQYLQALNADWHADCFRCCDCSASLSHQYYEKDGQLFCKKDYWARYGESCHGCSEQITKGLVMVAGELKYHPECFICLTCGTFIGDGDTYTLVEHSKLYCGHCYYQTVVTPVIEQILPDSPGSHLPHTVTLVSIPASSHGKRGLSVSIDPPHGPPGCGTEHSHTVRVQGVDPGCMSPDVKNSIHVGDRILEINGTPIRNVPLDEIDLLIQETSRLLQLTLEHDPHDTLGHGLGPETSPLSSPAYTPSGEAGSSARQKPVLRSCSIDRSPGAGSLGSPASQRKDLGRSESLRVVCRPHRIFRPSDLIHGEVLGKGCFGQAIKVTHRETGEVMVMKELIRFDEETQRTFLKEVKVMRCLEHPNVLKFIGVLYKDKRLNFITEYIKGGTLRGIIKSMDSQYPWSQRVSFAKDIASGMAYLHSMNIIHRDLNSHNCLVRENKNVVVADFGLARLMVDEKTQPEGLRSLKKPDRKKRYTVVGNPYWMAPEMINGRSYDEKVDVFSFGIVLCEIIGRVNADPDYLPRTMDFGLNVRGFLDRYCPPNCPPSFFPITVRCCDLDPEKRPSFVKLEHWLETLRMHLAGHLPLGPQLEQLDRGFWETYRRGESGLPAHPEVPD
Sequence of Casein kinase I isoform alpha (P48729 whole entry, canonical isoform): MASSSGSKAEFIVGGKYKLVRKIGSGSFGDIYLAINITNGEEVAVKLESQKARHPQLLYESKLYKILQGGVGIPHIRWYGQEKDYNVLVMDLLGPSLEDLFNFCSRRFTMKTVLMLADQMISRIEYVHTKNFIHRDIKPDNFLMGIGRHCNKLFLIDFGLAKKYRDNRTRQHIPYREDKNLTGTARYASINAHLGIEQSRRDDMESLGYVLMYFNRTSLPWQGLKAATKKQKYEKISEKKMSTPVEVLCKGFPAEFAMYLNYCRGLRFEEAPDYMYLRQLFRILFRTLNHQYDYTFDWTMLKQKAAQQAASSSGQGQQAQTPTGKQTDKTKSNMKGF
Sequence of Ribosomal protein S6 kinase alpha-4 (O75676 whole entry): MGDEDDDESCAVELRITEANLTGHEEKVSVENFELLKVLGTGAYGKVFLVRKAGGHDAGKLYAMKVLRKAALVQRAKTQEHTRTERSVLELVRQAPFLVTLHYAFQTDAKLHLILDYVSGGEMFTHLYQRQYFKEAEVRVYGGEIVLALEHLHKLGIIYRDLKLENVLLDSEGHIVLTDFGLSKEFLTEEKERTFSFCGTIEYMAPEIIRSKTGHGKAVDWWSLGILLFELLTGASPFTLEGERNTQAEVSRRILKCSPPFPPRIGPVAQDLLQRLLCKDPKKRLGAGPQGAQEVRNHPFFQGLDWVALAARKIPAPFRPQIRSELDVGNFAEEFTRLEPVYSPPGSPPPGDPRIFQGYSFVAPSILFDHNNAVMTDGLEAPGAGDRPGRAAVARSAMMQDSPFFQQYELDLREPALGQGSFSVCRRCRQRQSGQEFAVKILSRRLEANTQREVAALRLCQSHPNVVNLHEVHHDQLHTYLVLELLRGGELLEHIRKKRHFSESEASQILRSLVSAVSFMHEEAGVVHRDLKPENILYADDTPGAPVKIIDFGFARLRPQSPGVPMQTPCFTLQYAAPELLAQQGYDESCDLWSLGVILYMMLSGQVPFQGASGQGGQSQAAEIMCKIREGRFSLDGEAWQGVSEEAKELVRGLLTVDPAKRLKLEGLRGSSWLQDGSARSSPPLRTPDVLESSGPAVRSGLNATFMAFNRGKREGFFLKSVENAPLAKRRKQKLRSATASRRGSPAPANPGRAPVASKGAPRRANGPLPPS

Kd (LIM domain kinase 1) | Kd [1] | Kd [2] | Kd [3] | Kd [4] | Kd [5] | Kd [6] | Kd (Myosin-14) | Kd (Adenosine kinase) | Kd [7] | Kd [8] | Kd [9] | Kd (dCTP pyrophosphatase 1) | Kd [10] | Kd [11] | Kd (Rab-like protein 3) | Kd [12] | Kd [13] | Structure (SMILES)
> 30 µM (inactive) | > 30 µM (inactive) | > 30 µM (inactive) | > 30 µM (inactive) | > 30 µM (inactive) | > 30 µM (inactive) | > 30 µM (inactive) | > 30 µM (inactive) | > 30 µM (inactive) | > 30 µM (inactive) | > 30 µM (inactive) | > 30 µM (inactive) | > 30 µM (inactive) | > 30 µM (inactive) | > 30 µM (inactive) | > 30 µM (inactive) | > 30 µM (inactive) | > 30 µM (inactive) | O=C(NC[C@H](O)CO)c1ccncc1Nc1ccc(I)cc1F [PIMASERTIB]
> 30 µM (inactive) | > 30 µM (inactive) | > 30 µM (inactive) | > 30 µM (inactive) | > 30 µM (inactive) | > 30 µM (inactive) | > 30 µM (inactive) | > 30 µM (inactive) | > 30 µM (inactive) | > 30 µM (inactive) | > 30 µM (inactive) | > 30 µM (inactive) | > 30 µM (inactive) | > 30 µM (inactive) | > 30 µM (inactive) | > 30 µM (inactive) | > 30 µM (inactive) | > 30 µM (inactive) | COc1cc(Nc2ncc(F)c(Nc3ccc4c(n3)N(COP(=O)(O)O)C(=O)C(C)(C)O4)n2)cc(OC)c1OC [FOSTAMATINIB]
> 30 µM (inactive) | > 30 µM (inactive) | > 30 µM (inactive) | > 30 µM (inactive) | > 30 µM (inactive) | > 30 µM (inactive) | > 30 µM (inactive) | – | > 30 µM (inactive) | > 30 µM (inactive) | > 30 µM (inactive) | > 30 µM (inactive) | > 30 µM (inactive) | > 30 µM (inactive) | > 30 µM (inactive) | > 30 µM (inactive) | > 30 µM (inactive) | > 30 µM (inactive) | FC(F)(F)c1ccc(CNc2ccc(Cc3c[nH]c4ncc(Cl)cc34)cn2)cn1 [PEXIDARTINIB]
> 30 µM (inactive) | > 30 µM (inactive) | > 30 µM (inactive) | > 30 µM (inactive) | > 30 µM (inactive) | > 30 µM (inactive) | > 30 µM (inactive) | > 30 µM (inactive) | > 30 µM (inactive) | > 30 µM (inactive) | > 30 µM (inactive) | > 30 µM (inactive) | > 30 µM (inactive) | > 30 µM (inactive) | > 30 µM (inactive) | > 30 µM (inactive) | > 30 µM (inactive) | > 30 µM (inactive) | O=S(=O)(c1cccc2c(O)nccc12)N1CCCNCC1 [HYDROXYFASUDIL]
2.17 µM (active) | > 30 µM (inactive) | > 30 µM (inactive) | > 30 µM (inactive) | > 30 µM (inactive) | > 30 µM (inactive) | > 30 µM (inactive) | – | > 30 µM (inactive) | > 30 µM (inactive) | > 30 µM (inactive) | > 30 µM (inactive) | > 30 µM (inactive) | > 30 µM (inactive) | > 30 µM (inactive) | > 30 µM (inactive) | > 30 µM (inactive) | > 30 µM (inactive) | O[C@H]1CC[C@H](Nc2ncc3nc(Nc4c(F)cc(F)cc4F)n([C@H]4CCOC4)c3n2)CC1 [TANZISERTIB]
> 30 µM (inactive) | > 30 µM (inactive) | > 30 µM (inactive) | > 30 µM (inactive) | > 30 µM (inactive) | > 30 µM (inactive) | > 30 µM (inactive) | > 30 µM (inactive) | – | > 30 µM (inactive) | > 30 µM (inactive) | > 30 µM (inactive) | > 30 µM (inactive) | > 30 µM (inactive) | > 30 µM (inactive) | > 30 µM (inactive) | > 30 µM (inactive) | > 30 µM (inactive) | Cc1cc(C(=O)Nc2cc(Oc3ccc4nc(NC(=O)C5CC5)cn4n3)ccc2C)n(C)n1 [TAK-593]

Structure (SMILES) | Kd (LIM domain kinase 1) | Kd [1] | Kd [2] | Kd [3] | Kd [4] | Kd [5] | Kd [6] | Kd (Myosin-14) | Kd (Adenosine kinase) | Kd [7] | Kd [8] | Kd [9] | Kd (dCTP pyrophosphatase 1) | Kd [10] | Kd [11] | Kd (Rab-like protein 3) | Kd [12] | Kd [13]
CC1(COc2ccc3c(c2)ncn3-c2ccc3cccc(N4CCC(N)CC4)c3n2)COC1 [CRENOLANIB] | > 30 µM (inactive) | > 30 µM (inactive) | > 30 µM (inactive) | > 30 µM (inactive) | – | > 30 µM (inactive) | > 30 µM (inactive) | > 30 µM (inactive) | > 30 µM (inactive) | > 30 µM (inactive) | 0.128 µM (active) | > 30 µM (inactive) | > 30 µM (inactive) | > 30 µM (inactive) | > 30 µM (inactive) | > 30 µM (inactive) | > 30 µM (inactive) | 2.57 µM (active)
COCCN1CCN(Cc2ccc(-c3n[nH]c4c3C(=O)c3c(NC(=O)NN5CCOCC5)cccc3-4)cc2)CC1 [RGB-286638] | > 30 µM (inactive) | 8.07 µM (active) | > 30 µM (inactive) | > 30 µM (inactive) | > 30 µM (inactive) | > 30 µM (inactive) | 3.18 µM (active) | – | > 30 µM (inactive) | > 30 µM (inactive) | 0.072 µM (active) | > 30 µM (inactive) | > 30 µM (inactive) | > 30 µM (inactive) | > 30 µM (inactive) | > 30 µM (inactive) | > 30 µM (inactive) | > 30 µM (inactive)
CNC(=O)c1ccc(Nc2ncc(C(F)(F)F)c(NCc3nccnc3N(C)S(C)(=O)=O)n2)cc1 [DEFACTINIB] | > 30 µM (inactive) | > 30 µM (inactive) | > 30 µM (inactive) | > 30 µM (inactive) | > 30 µM (inactive) | > 30 µM (inactive) | > 30 µM (inactive) | > 30 µM (inactive) | – | > 30 µM (inactive) | 1.66 µM | > 30 µM (inactive) | > 30 µM (inactive) | > 30 µM (inactive) | > 30 µM (inactive) | > 30 µM (inactive) | – | > 30 µM (inactive)
